From article PMC5548886 (Cancer Medicine, 2017)
Where two headings read alike, the source gives them in different places.

How the values were obtained:
BRAF V600E = conditions: read-out: EC50 for BRAF V600E; preclinical data; cited from earlier work
Ki-67 = system: Ki-67
Procedure: (§1) Pharmacodynamic markers were examined using peripheral blood samples, tumor and nevi biopsies (when available) and tumor imaging. BRAF mutation status was determined by Sanger sequencing. Pharmacodynamic markers analyzed, in available tumor/nevus samples obtained before treatment or archival tissue and during treatment on cycle 1, day 8 or day 15, including cytoplasmic p‐MEK, p‐ERK, BIM, c‐KIT, p‐AKT473, pS6 and PTEN, and nuclear p‐ERK, Ki‐67, PARP, cyclin D1, MITF, p27, and p53. Biomarker expression was determined by calculating the percentage of change in the H‐score (14) between on‐treatment and fresh/archival pretreatment specimens. Blood levels of VEGFR‐2 and were assessed before and at multiple time points while on treatment using enzyme‐linked immunosorbent assay (ELISA). […] Changes in standard uptake value (SUV) were determined by a blinded, independent central imaging review panel. Complete metabolic response (CMR) was complete resolution of tumor FDG‐PET uptake so SUV is the same as background. Partial metabolic response (PMR) decrease in sum of the tumor SUV of ≥25% from the baseline scan. Progressive metabolic disease (PMD) was defined as an increase in tumor SUV of ≥25% from the baseline scan, or the appearance of new FDG‐PET uptake in metastatic lesions. Stable metabolic disease (SMD) was defined as a change in tumor SUV between the PMR and PMD criteria.

[1] = system: soluble VEGFR-2 (sVEGFR-2); test: Blood level by ELISA; assay type: in vivo, human; conditions: all dose levels, over time
Procedure: as §1

wild-type BRAF protein = conditions: read-out: EC50 for the wild-type BRAF protein; preclinical; cited from earlier work
[2] = system: locally advanced or metastatic melanoma; test: Antitumor response by RECIST 1.0; assay type: in vivo, human
Procedure: Medical history and demographics were collected at screening. The safety of study medication was evaluated on the basis of rate, type, severity graded in accordance with NCI CTCAE version 3.0. Safety assessments consisted of collecting all AEs, serious adverse events (SAEs) with their severity and relationship with study drug, and pregnancies. They included the regular monitoring of hematology, blood chemistry and urine performed at the study center/central laboratory and regular assessments of vital signs, physical condition, body weight, performance status, and cardiac data (i.e. electrocardiogram (ECG)/echocardiogram (ECHO)). Abnormalities in clinical laboratory tests that were considered clinically significant by the Investigator were recorded on the AE CRF. Dose‐limiting toxicities (DLTs) were defined for various organ systems and other clinically relevant adverse effects (Table S1). The DLT window was the first cycle while AEs were captured for the entire course of treatment. Evaluation of tumor response was conducted at Baseline, and at the end of every 8 weeks of treatment. Response was assessed using the Response Evaluation Criteria in Solid Tumors (RECIST) 1.0. […] All patients discontinuing from the study for progressive disease were to have their disease progression documented by radiologic evaluation.

[3] = 33 patients with BRAF-WT melanomas
[4] = BRAF mutation, All patients, 33 evaluable
[5] = BRAF mutation, DL 5, 8 evaluable
[6] = BRAF mutation, DL 6, 10 evaluable
[7] = BRAF mutation, DLs 1 to 4, 6 evaluable
[8] = BRAF mutation, DLs 7 and 7.1, 9 evaluable
[9] = BRAF unspecified/unknown, All patients, 5 evaluable
[10] = BRAF unspecified/unknown, DL 5, 0 evaluable
[11] = BRAF unspecified/unknown, DL 6, 2 evaluable
[12] = BRAF unspecified/unknown, DLs 1 to 4, 1 evaluable
[13] = BRAF unspecified/unknown, DLs 7 and 7.1, 2 evaluable
[14] = BRAF wild-type, All patients, 28 evaluable
[15] = BRAF wild-type, DL 5, 5 evaluable
[16] = BRAF wild-type, DL 6, 8 evaluable
[17] = BRAF wild-type, DLs 1 to 4, 8 evaluable
[18] = BRAF wild-type, DLs 7 and 7.1, 7 evaluable
[19] = Total, All patients, 66 evaluable
[20] = Total, DLs 1 to 4, 15 evaluable
[21] = Total, DLs 7 and 7.1, 18 evaluable

Cn1c(Nc2ccc(C(F)(F)F)cc2)nc2cc(Oc3ccnc(-c4ncc(C(F)(F)F)[nH]4)c3)ccc21 [RAF265]
Ki67 % change vs pretreatment, Mean (SD) (Ki-67; All patients, n 23): -13.46 (50) %
Ki67 % change vs pretreatment, Median (Ki-67; All patients, n 23): -11.1%
Ki67 % change vs pretreatment, Mean (SD) (Ki-67; DL 5, n 2): 0%
Ki67 % change vs pretreatment, Median (Ki-67; DL 5, n 2): 0%
Ki67 decrease (Ki-67; DL 6): up to 51.8%
Ki67 % change vs pretreatment, Mean (SD) (Ki-67; DL 6, n 6): -47.93 (40.8) %
Ki67 % change vs pretreatment, Median (Ki-67; DL 6, n 6): -51.8%
Ki67 % change vs pretreatment, Mean (SD) (Ki-67; DLs 1 - 4, n 11): +0.21 (59) %
Ki67 % change vs pretreatment, Median (Ki-67; DLs 1 - 4, n 11): -11.1%
Ki67 % change vs pretreatment, Mean (SD) (Ki-67; DLs 7 and 7.1, n 4): -6.08 (20) %
Ki67 % change vs pretreatment, Median (Ki-67; DLs 7 and 7.1, n 4): -2.6%
sVEGFR-2 levels [1]: significant decrease
number of CR [2, 3]: one
number of PR [2, 3]: two
number of PR ([2]; 39 patients with BRAF V600E mutation): Four
number of complete responses (CR) ([2]; 66 evaluable patients): one
number of partial responses (PR) ([2]; 66 evaluable patients): seven
objective response rate (ORR), RECIST ([2]; 66 evaluable patients, all dose levels): 12.1%
Best response CR or PR ([2]; All patients, 66 evaluable): 8 (12.1) n (%)
Best response CR, PR or SD ([2]; All patients, 66 evaluable): 35 (53) n (%)
Complete response (CR), best overall response [2, 4]: 0 n (%)
Partial response (PR), best overall response [2, 4]: 4 (12) n (%)
Stable disease (SD), best overall response [2, 4]: 15 (46) n (%)
Complete response (CR), best overall response [2, 5]: 0 n (%)
Partial response (PR), best overall response [2, 5]: 1 (12.5) n (%)
Progressive disease (PD), best overall response [2, 5]: 4 (50) n (%)
Stable disease (SD), best overall response [2, 5]: 3 (37.5) n (%)
Complete response (CR), best overall response [2, 6]: 0 n (%)
Partial response (PR), best overall response [2, 6]: 1 (10) n (%)
Progressive disease (PD), best overall response [2, 6]: 2 (20) n (%)
Stable disease (SD), best overall response [2, 6]: 7 (70) n (%)
Complete response (CR), best overall response [2, 7]: 0 n (%)
Partial response (PR), best overall response [2, 7]: 2 (33.3) n (%)
Progressive disease (PD), best overall response [2, 7]: 4 (66.7) n (%)
Stable disease (SD), best overall response [2, 7]: 0 n (%)
Complete response (CR), best overall response [2, 8]: 0 n (%)
Partial response (PR), best overall response [2, 8]: 0 n (%)
Progressive disease (PD), best overall response [2, 8]: 4 (44) n (%)
Stable disease (SD), best overall response [2, 8]: 5 (56) n (%)
Complete response (CR), best overall response [2, 9]: 0 n (%)
Partial response (PR), best overall response [2, 9]: 1 (20) n (%)
Progressive disease (PD), best overall response [2, 9]: 3 (60) n (%)
Stable disease (SD), best overall response [2, 9]: 1 (20) n (%)
Complete response (CR), best overall response [2, 10]: 0 n (%)
Partial response (PR), best overall response [2, 10]: 0 n (%)
Progressive disease (PD), best overall response [2, 10]: 0 n (%)
Stable disease (SD), best overall response [2, 10]: 0 n (%)
Complete response (CR), best overall response [2, 11]: 0 n (%)
Partial response (PR), best overall response [2, 11]: 0 n (%)
Progressive disease (PD), best overall response [2, 11]: 2 (100) n (%)
Stable disease (SD), best overall response [2, 11]: 0 n (%)
Complete response (CR), best overall response [2, 12]: 0 n (%)
Partial response (PR), best overall response [2, 12]: 0 n (%)
Progressive disease (PD), best overall response [2, 12]: 0 n (%)
Stable disease (SD), best overall response [2, 12]: 1 (100) n (%)
Complete response (CR), best overall response [2, 13]: 0 n (%)
Partial response (PR), best overall response [2, 13]: 1 (50) n (%)
Progressive disease (PD), best overall response [2, 13]: 1 (50) n (%)
Stable disease (SD), best overall response [2, 13]: 0 n (%)
Complete response (CR), best overall response [2, 14]: 1 (3.6) n (%)
Stable disease (SD), best overall response [2, 14]: 11 (39.3) n (%)
Complete response (CR), best overall response [2, 15]: 0 n (%)
Partial response (PR), best overall response [2, 15]: 0 n (%)
Progressive disease (PD), best overall response [2, 15]: 2 (40) n (%)
Stable disease (SD), best overall response [2, 15]: 3 (60) n (%)
Complete response (CR), best overall response [2, 16]: 0 n (%)
Partial response (PR), best overall response [2, 16]: 1 (12.5) n (%)
Progressive disease (PD), best overall response [2, 16]: 5 (62.5) n (%)
Stable disease (SD), best overall response [2, 16]: 2 (25) n (%)
Complete response (CR), best overall response [2, 17]: 0 n (%)
Partial response (PR), best overall response [2, 17]: 1 (12.5) n (%)
Progressive disease (PD), best overall response [2, 17]: 6 (75) n (%)
Stable disease (SD), best overall response [2, 17]: 1 (12.5) n (%)
Complete response (CR), best overall response [2, 18]: 1 (14.3) n (%)
Partial response (PR), best overall response [2, 18]: 0 n (%)
Progressive disease (PD), best overall response [2, 18]: 1 (14.3) n (%)
Stable disease (SD), best overall response [2, 18]: 5 (71.4) n (%)
Best response CR or PR ([2]; DL 5, 13 evaluable): 1 (7.7) n (%)
Best response CR, PR or SD ([2]; DL 5, 13 evaluable): 7 (53.8) n (%)
Best response CR or PR ([2]; DL 6, 20 evaluable): 2 (10) n (%)
Best response CR, PR or SD ([2]; DL 6, 20 evaluable): 11 (55) n (%)
Best response CR or PR ([2]; DLs 1 to 4, 15 evaluable): 3 (20) n (%)
Best response CR, PR or SD ([2]; DLs 1 to 4, 15 evaluable): 5 (33.3) n (%)
Best response CR or PR ([2]; DLs 7 and 7.1, 18 evaluable): 2 (11.1) n (%)
Best response CR, PR or SD ([2]; DLs 7 and 7.1, 18 evaluable): 12 (66.7) n (%)
Complete response (CR), best overall response [2, 19]: 1 (1.5) n (%)
Partial response (PR), best overall response [2, 19]: 7 (10.6) n (%)
Progressive disease (PD), best overall response [2, 19]: 31 (47) n (%)
Stable disease (SD), best overall response [2, 19]: 27 (40.9) n (%)
Complete response (CR), best overall response ([2]; Total, DL 5, 13 evaluable): 0 n (%)
Partial response (PR), best overall response ([2]; Total, DL 5, 13 evaluable): 1 (7.7) n (%)
Progressive disease (PD), best overall response ([2]; Total, DL 5, 13 evaluable): 6 (46.1) n (%)
Stable disease (SD), best overall response ([2]; Total, DL 5, 13 evaluable): 6 (46.1) n (%)
Complete response (CR), best overall response ([2]; Total, DL 6, 20 evaluable): 0 n (%)
Partial response (PR), best overall response ([2]; Total, DL 6, 20 evaluable): 2 (10) n (%)
Progressive disease (PD), best overall response ([2]; Total, DL 6, 20 evaluable): 9 (45) n (%)
Stable disease (SD), best overall response ([2]; Total, DL 6, 20 evaluable): 9 (45) n (%)
Complete response (CR), best overall response [2, 20]: 0 n (%)
Partial response (PR), best overall response [2, 20]: 3 (20) n (%)
Progressive disease (PD), best overall response [2, 20]: 10 (66.7) n (%)
Stable disease (SD), best overall response [2, 20]: 2 (13.3) n (%)
Complete response (CR), best overall response [2, 21]: 1 (5.6) n (%)
Partial response (PR), best overall response [2, 21]: 1 (5.6) n (%)
Progressive disease (PD), best overall response [2, 21]: 6 (33.3) n (%)
Stable disease (SD), best overall response [2, 21]: 10 (55.6) n (%)
number of PR ([2]; unknown BRAF mutation status): one
